Experimental data as given in ChEMBL document CHEMBL1201862, “PubChem BioAssay data set” (2004).
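Method: 48-hour compound exposure of cells in 96-well plates, five concentrations, linear interpolation of endpoints. The concentration for 50% growth inhibition is given as GI50.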 The source made the active and inactive calls. Rule as the data show it: active = GI50 up to about 1.1 µM and inactive = higher.

Experiments:
Experiment in all cases: NCI tumour cell line growth inhibition, 48 h
[1] = test system: NCI-H23
[2] = test system: SW-620
[3] = test system: MDA-MB-435
[4] = test system: HL-60
[5] = test system: RXF 393
[6] = test system: TK-10
[7] = test system: BT-549
[8] = test system: T47D
[9] = test system: 786-0
[10] = test system: Malme-3M
[11] = test system: OVCAR-8
[12] = test system: LOX IMVI
[13] = test system: OVCAR-5
[14] = test system: SK-MEL-5
[15] = test system: OVCAR-3
[16] = test system: A498
[17] = test system: CAKI-1
[18] = test system: MOLT-4
[19] = test system: SF-295
[20] = test system: SNB-75
[21] = test system: UACC-257
[22] = test system: EKVX
[23] = test system: UACC-62
[24] = test system: Hs-578T
[25] = test system: HOP-92
[26] = test system: SK-MEL-2
[27] = test system: PC-3
[28] = test system: KM12
[29] = test system: SN12C
[30] = test system: MDA-MB-231
[31] = test system: COLO 205
[32] = test system: RPMI-8226
[33] = test system: IGROV-1
[34] = test system: UO-31
[35] = test system: M14
[36] = test system: HT-29
[37] = test system: DU-145
[38] = test system: HOP-62
[39] = test system: SR
[40] = test system: A549
[41] = test system: MCF7
[42] = test system: SK-OV-3
[43] = test system: SF-268
[44] = test system: NCI-H522
[45] = test system: HCT-116
[46] = test system: OVCAR-4
[47] = test system: CCRF-CEM
[48] = test system: ACHN
[49] = test system: K562
[50] = test system: NCI-H460
[51] = test system: SF-539
[52] = test system: U-251
[53] = test system: NCI-H226
[54] = test system: SNB-19
[55] = test system: NCI/ADR-RES
[56] = test system: HCT-15
[57] = test system: HCC 2998
[58] = test system: SK-MEL-28
[59] = test system: MDA-N

O=[N+]([O-])C(=C/C1CCCCC1)/C(=C\C1CCCCC1)[N+](=O)[O-]
GI50 [1]: 2.99 µM (inactive)
GI50 [2]: 3.35 µM (inactive)
GI50 [3]: 4.56 µM (inactive)
GI50 [4]: 2.09 µM (inactive)
GI50 [5]: 1.49 µM (inactive)
GI50 [6]: 6.27 µM (inactive)
GI50 [7]: 5.42 µM (inactive)
GI50 [8]: 9.73 µM (inactive)
GI50 [9]: 1.84 µM (inactive)
GI50 [10]: 2.2 µM (inactive)
GI50 [11]: 3.3 µM (inactive)
GI50 [12]: 2.12 µM (inactive)
GI50 [13]: 11.7 µM (inactive)
GI50 [14]: 7.83 µM (inactive)
GI50 [15]: 9.23 µM (inactive)
GI50 [16]: 15.3 µM (inactive)
GI50 [17]: 3.85 µM (inactive)
GI50 [18]: 1.56 µM (inactive)
GI50 [19]: 16.3 µM (inactive)
GI50 [20]: 14.1 µM (inactive)
GI50 [21]: 8.63 µM (inactive)
GI50 [22]: 9.4 µM (inactive)
GI50 [23]: 5.7 µM (inactive)
GI50 [24]: 2.84 µM (inactive)
GI50 [25]: 7.05 µM (inactive)
GI50 [26]: 16.3 µM (inactive)
GI50 [27]: 6.32 µM (inactive)
GI50 [28]: 11.1 µM (inactive)
GI50 [29]: 3.24 µM (inactive)
GI50 [30]: 2.73 µM (inactive)
GI50 [31]: 3.21 µM (inactive)
GI50 [32]: 0.316 µM (active)
GI50 [33]: 5.27 µM (inactive)
GI50 [34]: 7.87 µM (inactive)
GI50 [35]: 4.05 µM (inactive)
GI50 [36]: 5.48 µM (inactive)
GI50 [37]: 13.3 µM (inactive)
GI50 [38]: 3.71 µM (inactive)
GI50 [39]: 1.8 µM (inactive)
GI50 [40]: 18.6 µM (inactive)
GI50 [41]: 5.3 µM (inactive)
GI50 [42]: 21.7 µM (inactive)
GI50 [43]: 3.27 µM (inactive)
GI50 [44]: 1.8 µM (inactive)
GI50 [45]: 6.43 µM (inactive)
GI50 [46]: 18.9 µM (inactive)
GI50 [47]: 2.62 µM (inactive)
GI50 [48]: 3.5 µM (inactive)
GI50 [49]: 4.49 µM (inactive)
GI50 [50]: 5.16 µM (inactive)
GI50 [51]: 2.18 µM (inactive)
GI50 [52]: 3.73 µM (inactive)
GI50 [53]: 7.28 µM (inactive)
GI50 [54]: 18.4 µM (inactive)
GI50 [55]: 2.47 µM (inactive)
GI50 [56]: 1.85 µM
GI50 [57]: 20.2 µM (inactive)
GI50 [58]: 5.06 µM (inactive)

CCCCCCOc1ccc(C(=O)NOCc2ccccc2)cc1
GI50 [1]: > 100 µM (inactive)
GI50 [2]: > 100 µM (inactive)
GI50 [3]: 41.3 µM (inactive)
GI50 [4]: 39.7 µM (inactive)
GI50 [5]: > 100 µM (inactive)
GI50 [6]: > 100 µM (inactive)
GI50 [7]: > 100 µM (inactive)
GI50 [9]: > 100 µM (inactive)
GI50 [11]: > 100 µM (inactive)
GI50 [12]: > 100 µM (inactive)
GI50 [13]: > 100 µM (inactive)
GI50 [14]: > 100 µM (inactive)
GI50 [15]: > 100 µM (inactive)
GI50 [16]: > 100 µM (inactive)
GI50 [17]: > 100 µM (inactive)
GI50 [18]: 79.6 µM (inactive)
GI50 [19]: > 100 µM (inactive)
GI50 [20]: > 100 µM (inactive)
GI50 [21]: > 100 µM (inactive)
GI50 [22]: > 100 µM (inactive)
GI50 [23]: > 100 µM (inactive)
GI50 [24]: > 100 µM (inactive)
GI50 [25]: > 100 µM (inactive)
GI50 [26]: > 100 µM (inactive)
GI50 [27]: > 100 µM (inactive)
GI50 [28]: > 100 µM (inactive)
GI50 [29]: > 100 µM (inactive)
GI50 [30]: > 100 µM (inactive)
GI50 [31]: > 100 µM (inactive)
GI50 [32]: 42.2 µM (inactive)
GI50 [59]: 45.8 µM (inactive)
GI50 [33]: > 100 µM (inactive)
GI50 [34]: > 100 µM (inactive)
GI50 [35]: > 100 µM (inactive)
GI50 [36]: > 100 µM (inactive)
GI50 [37]: > 100 µM (inactive)
GI50 [38]: > 100 µM (inactive)
GI50 [39]: 18.5 µM (inactive)
GI50 [40]: > 100 µM (inactive)
GI50 [41]: > 100 µM (inactive)
GI50 [42]: > 100 µM (inactive)
GI50 [43]: > 100 µM (inactive)
GI50 [44]: > 100 µM (inactive)
GI50 [45]: > 100 µM (inactive)
GI50 [46]: > 100 µM (inactive)
GI50 [47]: 90.2 µM (inactive)
GI50 [48]: > 100 µM (inactive)
GI50 [49]: 35.6 µM (inactive)
GI50 [50]: > 100 µM (inactive)
GI50 [51]: > 100 µM (inactive)
GI50 [52]: > 100 µM (inactive)
GI50 [53]: > 100 µM (inactive)
GI50 [54]: > 100 µM (inactive)
GI50 [55]: > 100 µM (inactive)
GI50 [56]: 63.8 µM
GI50 [57]: > 100 µM (inactive)
GI50 [58]: > 100 µM (inactive)

OC(c1ccco1)C(F)(F)c1nc2ccccc2o1 (stereo not drawn)
GI50 [1]: > 100 µM (inactive)
GI50 [2]: > 100 µM (inactive)
GI50 [3]: > 100 µM (inactive)
GI50 [4]: > 100 µM (inactive)
GI50 [5]: > 100 µM (inactive)
GI50 [6]: > 100 µM (inactive)
GI50 [7]: > 100 µM (inactive)
GI50 [8]: 61.5 µM (inactive)
GI50 [9]: > 100 µM (inactive)
GI50 [11]: > 100 µM (inactive)
GI50 [12]: > 100 µM (inactive)
GI50 [14]: > 100 µM (inactive)
GI50 [16]: 62.1 µM (inactive)
GI50 [17]: > 100 µM (inactive)
GI50 [18]: > 100 µM (inactive)
GI50 [19]: 56.8 µM (inactive)
GI50 [20]: > 100 µM (inactive)
GI50 [21]: > 100 µM (inactive)
GI50 [22]: > 100 µM (inactive)
GI50 [23]: > 100 µM (inactive)
GI50 [24]: > 100 µM (inactive)
GI50 [25]: > 100 µM (inactive)
GI50 [26]: > 100 µM (inactive)
GI50 [27]: > 100 µM (inactive)
GI50 [28]: > 100 µM (inactive)
GI50 [30]: > 100 µM (inactive)
GI50 [31]: > 100 µM (inactive)
GI50 [32]: > 100 µM (inactive)
GI50 [33]: > 100 µM (inactive)
GI50 [34]: 69.2 µM (inactive)
GI50 [35]: 29.5 µM (inactive)
GI50 [36]: > 100 µM (inactive)
GI50 [37]: > 100 µM (inactive)
GI50 [38]: > 100 µM (inactive)
GI50 [39]: > 100 µM (inactive)
GI50 [41]: 41.1 µM (inactive)
GI50 [42]: 68.4 µM (inactive)
GI50 [43]: > 100 µM (inactive)
GI50 [45]: > 100 µM (inactive)
GI50 [46]: > 100 µM (inactive)
GI50 [47]: > 100 µM (inactive)
GI50 [48]: > 100 µM (inactive)
GI50 [49]: 69.8 µM (inactive)
GI50 [50]: > 100 µM (inactive)
GI50 [51]: > 100 µM (inactive)
GI50 [52]: > 100 µM (inactive)
GI50 [53]: > 100 µM (inactive)
GI50 [54]: > 100 µM (inactive)
GI50 [55]: > 100 µM (inactive)
GI50 [56]: > 100 µM
GI50 [57]: > 100 µM (inactive)
GI50 [58]: > 100 µM (inactive)

CC(C)(C)OC(=O)N(CCCCNC(=O)OCc1ccccc1)CCCNC(=O)OCc1ccccc1
GI50 [1]: 21.6 µM (inactive)
GI50 [2]: 71 µM (inactive)
GI50 [3]: 35.8 µM (inactive)
GI50 [4]: 5.28 µM (inactive)
GI50 [5]: 30 µM (inactive)
GI50 [6]: > 100 µM (inactive)
GI50 [7]: 53 µM (inactive)
GI50 [8]: 5.19 µM (inactive)
GI50 [9]: 91 µM (inactive)
GI50 [11]: 32.4 µM (inactive)
GI50 [13]: > 100 µM (inactive)
GI50 [14]: 5.93 µM (inactive)
GI50 [15]: > 100 µM (inactive)
GI50 [16]: 21.8 µM (inactive)
GI50 [17]: 1.96 µM (inactive)
GI50 [18]: 3.27 µM (inactive)
GI50 [19]: 25.9 µM (inactive)
GI50 [20]: 51.9 µM (inactive)
GI50 [21]: 26.4 µM (inactive)
GI50 [22]: 50.4 µM (inactive)
GI50 [23]: 87.9 µM (inactive)
GI50 [24]: > 100 µM (inactive)
GI50 [25]: 23.4 µM (inactive)
GI50 [26]: 55.7 µM (inactive)
GI50 [27]: 10.7 µM (inactive)
GI50 [28]: 35.5 µM (inactive)
GI50 [29]: 53.3 µM (inactive)
GI50 [30]: 90.2 µM (inactive)
GI50 [31]: 16.5 µM (inactive)
GI50 [32]: 12.6 µM (inactive)
GI50 [33]: > 100 µM (inactive)
GI50 [34]: 5.7 µM (inactive)
GI50 [35]: 51.8 µM (inactive)
GI50 [36]: 18.5 µM (inactive)
GI50 [37]: > 100 µM (inactive)
GI50 [38]: > 100 µM (inactive)
GI50 [39]: 9.68 µM (inactive)
GI50 [40]: 9.71 µM (inactive)
GI50 [41]: 33.3 µM (inactive)
GI50 [42]: > 100 µM (inactive)
GI50 [43]: > 100 µM (inactive)
GI50 [44]: 4.06 µM (inactive)
GI50 [45]: 41.8 µM (inactive)
GI50 [46]: 33 µM (inactive)
GI50 [47]: 16.3 µM (inactive)
GI50 [48]: 9.86 µM (inactive)
GI50 [49]: 23.3 µM (inactive)
GI50 [50]: 38.2 µM (inactive)
GI50 [51]: > 100 µM (inactive)
GI50 [52]: 35.6 µM (inactive)
GI50 [53]: > 100 µM (inactive)
GI50 [54]: > 100 µM (inactive)
GI50 [55]: 8.59 µM (inactive)
GI50 [56]: > 100 µM
GI50 [57]: 98.6 µM (inactive)
GI50 [58]: > 100 µM (inactive)
